Data on 20 compounds can be found in US6933309B2, “Halogenobenzyl aminopropionic acid derivatives” (Toaeiyo Ltd., priority 2002, dated 2005).

The structures appear in SMILES notation. Where two headings read alike, the source gives them in different places.

Data set [1] concerns male KKA^y mice (obesity/noninsulin-dependent diabetes mellitus model). As to the kind of experiment: Blood glucose lowering effect and blood lipid (blood TG and blood FFA) lowering effect in mice. The data set is classed as in vivo. Conditions: 1 mg/kg/day oral, once a day over seven days, plasma on the day following final administration, vs control group; for inhibition in vivo at 1 mg/kg/day: Mus musculus, po, 168 h. Here is the method: Blood glucose Lowering Effect and Blood Lipid (Blood TG and Blood FFA) Lowering Effect in Mice
Each of the test compounds was suspended in a 0.5-%(w/v) sodium CMC solution, and the suspension was forcedly administered via oral route once a day over seven days to male KKA^y mice (obesity/noninsulin-dependent diabetes mellitus model, 6 to 7 weeks old, 3 to 5 animals per group) (1 mg/kg/day). During this 7-day period, feed and water were taken ad libitum. On the day following the final administration, blood was drawn from the tail vein without anesthesia and centrifuged, to thereby prepare plasma samples. Plasma glucose level, plasma TG level, and plasma FFA level of the samples were determined through the enzymatic method by use of an L-type Wako Glu2 (Wako Pure Chemical Industries), an L-type Wako TG-H (Wako Pure Chemical Industries), and an NEFA-HA Test Wako (Wako Pure Chemical Industries), respectively, by means of a full-automated clinical chemistry analyzer (CL-8000, Shimadzu Corporation). Percent reduction was determined from the obtained values by use of the following equations.

The next data set concerns KKA^y mice. As to the kind of experiment: Plasma adiponectin level in KKA^y mice after two weeks of oral administration. The data set is classed as in vivo. Conditions: over two weeks, 0.1, 0.3, or 1 mg/kg/day. On the procedure: Separately, the present compound (1) or a salt thereof was orally administered to KKA^y mice over two weeks (0.1, 0.3, or 1 mg/kg/day), and plasma adiponectin level of each mouse was determined.

[2] abbreviates: read-out: Percent reduction of blood FFA level.
[3] abbreviates: read-out: Percent reduction of blood TG level.
Where [4] appears, read: read-out: Percent reduction of blood glucose level.

Usually melting point stands for the temperature, or range, at which the solid turns liquid. On to `Cc1oc(-c2ccccc2)nc1CCOc1ccc(C[C@H](NCc2ccc(F)cc2)C(=O)[O-])cc1.[Na+]` [Compound 35, Sodium (S)-3-[4-[2-(5-methyl-2-phenyl-1,3-oxazol-4-yl)ethoxy]phenyl]-2-(4-fluorobenzylamino)propionate], for which the melting point fell in the range of 179 to 181 °C. Moreover, the “Percent reduction of blood glucose level” value in data set [1] was determined as 36%. Further, the inhibition in vivo at 1 mg/kg/day in data set [1] (setting [2]) was found to be 33%. Moreover, the inhibition in vivo at 1 mg/kg/day in data set [1] (setting [3]) came to 47%.
In the case of `Cc1oc(-c2ccccc2)nc1CCOc1ccc(C[C@H](NCc2ccc(Br)cc2)C(=O)O)cc1` [Compound 33, (S)-3-[4-[2-(5-Methyl-2-phenyl-1,3-oxazol-4-yl)ethoxy]phenyl]-2-(4-bromobenzylamino)propionic Acid], the melting point is 196 to 199 °C.
The compound `Cc1ccc(-c2nc(CCOc3ccc(C[C@H](NCc4ccc(F)cc4)C(=O)O)cc3)c(C)o2)cc1` [Compound 20, (S)-3-[4-[2-[5-Methyl-2-(4-methylphenyl)-1,3-oxazol-4-yl]ethoxy]phenyl]-2-(4-fluorobenzylamino)propionic Acid] displayed a melting point of 196 to 198 °C. Moreover, in data set [1] (setting [2]), the inhibition in vivo at 1 mg/kg/day amounted to 25%. The inhibition in vivo at 1 mg/kg/day in data set [1] (setting [3]) was found to be 36%. For the same compound, the inhibition in vivo at 1 mg/kg/day in data set [1] (setting [4]) stood at 21%.
In the same order, the values of `CCOC(=O)[C@H](Cc1ccc(OCCc2nc(-c3ccccc3)oc2C)cc1)NCc1ccc(F)cc1.CS(=O)(=O)O` [Compound 38, Ethyl(S)-3-[4-[2-(5-methyl-2-phenyl-1,3-oxazol-4-yl)ethoxy]phenyl]-2-(4-fluorobenzylamino)propionate methanesulfonate] are 144 °C, 16%, 33% and 25%.
In turn, `Cc1oc(-c2ccccc2)nc1CCOc1ccc(C[C@H](NCc2ccc(F)cc2)C(=O)O)cc1` [Compound 18, (S)-3-[4-[2-(5-Methyl-2-phenyl-1,3-oxazol-4-yl)ethoxy]phenyl]-2-(4-fluorobenzylamino)propionic Acid] displayed a melting point of 184.5 to 186.5 °C. Also, in data set [1], the “Percent reduction of blood FFA level” value is 27%, the “Percent reduction of blood TG level” value was determined as 40% and the “Percent reduction of blood glucose level” value stood at 15%. The “effect of increasing plasma adiponectin level” value in the data set with KKA^y mice was “particularly excellent effect of increasing plasma adiponectin level”.
In turn, `Cc1oc(-c2ccccc2)nc1CCOc1ccc(C[C@H](NCc2ccc(F)c(F)c2)C(=O)O)cc1` [Compound 26, (S)-3-[4-[2-(5-Methyl-2-phenyl-1,3-oxazol-4-yl)ethoxy]phenyl]-2-(3,4-difluorobenzylamino)propionic Acid] displayed a melting point of 202 to 204 °C.
The compound `Cc1oc(-c2ccccc2)nc1CCOc1ccc(C[C@H](NCc2ccccc2Cl)C(=O)O)cc1` [Compound 32, (S)-3-[4-[2-(5-Methyl-2-phenyl-1,3-oxazol-4-yl)ethoxy]phenyl]-2-(2-chlorobenzylamino)propionic Acid] returned a melting point of 143 to 145 °C. In addition, in data set [1] (setting [2]), the inhibition in vivo at 1 mg/kg/day is 13%. Also, in data set [1] (setting [3]), the inhibition in vivo at 1 mg/kg/day turned out to be 33%. For the same compound, in data set [1] (setting [4]), the inhibition in vivo at 1 mg/kg/day worked out at 39%.
Compound `Cc1oc(-c2ccccc2)nc1CCOc1ccc(C[C@H](NCc2cccc(F)c2F)C(=O)O)cc1` [Compound 27, (S)-3-[4-[2-(5-Methyl-2-phenyl-1,3-oxazol-4-yl)ethoxy]phenyl]-2-(2,3-difluorobenzylamino)propionic Acid] came in with a melting point of 173 to 175 °C. Besides, the inhibition in vivo at 1 mg/kg/day in data set [1] (setting [2]) stood at 16%. Further, the inhibition in vivo at 1 mg/kg/day in data set [1] (setting [3]) is 48%. For the same compound, the inhibition in vivo at 1 mg/kg/day in data set [1] (setting [4]) came out at 40%.
The compound `Cc1oc(-c2ccc(F)cc2)nc1CCOc1ccc(C[C@H](NCc2ccc(F)cc2)C(=O)O)cc1` [Compound 19, (S)-3-[4-[2-[2-(4-Fluorophenyl)-5-methyl-1,3-oxazol-4-yl]ethoxy]phenyl]-2-(4-fluorobenzylamino)propionic Acid] returned a melting point of 191 to 193 °C.
For the compound `Cc1oc(-c2ccccc2)nc1CCOc1ccc(C[C@@H](C(=O)O)N(C)Cc2ccc(F)cc2)cc1` [Compound 34, (S)-3-[4-[2-(5-Methyl-2-phenyl-1,3-oxazol-4-yl)ethoxy]phenyl]-2-[N-(4-fluorobenzyl)-N-methylamino]propionic Acid], the melting point fell in the range of 142 to 145 °C.
Turning to `Cc1oc(-c2ccccc2)nc1CCOc1ccc(C[C@H](NCc2ccccc2)C(=O)O)cc1` [Comparative Compound 1, (S)-3-[4-[2-(5-Methyl-2-phenyl-1,3-oxazol-4-yl)ethoxy]phenyl]-2-(benzylamino)propionic Acid], the melting point was in the range of 206 to 209 °C. Also, in data set [1] (setting [2]), the inhibition in vivo at 1 mg/kg/day was -2%. Further, in data set [1] (setting [3]), the inhibition in vivo at 1 mg/kg/day stood at 17%. In addition, in data set [1] (setting [4]), the inhibition in vivo at 1 mg/kg/day was 12%.
`Cc1oc(-c2ccccc2)nc1CCOc1ccc(C[C@H](NCc2ccc(F)cc2)C(=O)O)cc1.Cl` returned a melting point of 198 to 200 °C.
`Cc1oc(-c2ccccc2)nc1CCOc1ccc(C[C@H](NCc2ccc(F)cc2F)C(=O)O)cc1` [Compound 25, (S)-3-[4-[2-(5-Methyl-2-phenyl-1,3-oxazol-4-yl)ethoxy]phenyl]-2-(2,4-difluorobenzylamino)propionic Acid] registered a melting point of 190 to 192 °C.
`Cc1oc(-c2ccccc2)nc1CCOc1ccc(C[C@H](NCc2c(F)cc(F)cc2F)C(=O)O)cc1` [Compound 29, (S)-3-[4-[2-(5-Methyl-2-phenyl-1,3-oxazol-4-yl)ethoxy]phenyl]-2-(2,4,6-trifluorobenzylamino)propionic Acid] displayed a melting point of 168 to 170 °C. Further, in data set [1] (setting [2]), the inhibition in vivo at 1 mg/kg/day worked out at 58%. Besides, the inhibition in vivo at 1 mg/kg/day in data set [1] (setting [3]) is 74%. The inhibition in vivo at 1 mg/kg/day in data set [1] (setting [4]) was 43%.
Compound `Cc1oc(-c2ccccc2)nc1CCOc1ccc(C[C@H](NCc2c(F)cccc2F)C(=O)O)cc1` [Compound 28, (S)-3-[4-[2-(5-Methyl-2-phenyl-1,3-oxazol-4-yl)ethoxy]phenyl]-2-(2,6-difluorobenzylamino)propionic Acid] returned a melting point of 165 to 167 °C. Moreover, in data set [1] (setting [2]), the inhibition in vivo at 1 mg/kg/day is 54%. Moreover, the inhibition in vivo at 1 mg/kg/day in data set [1] (setting [3]) came out at 65%. Moreover, the inhibition in vivo at 1 mg/kg/day in data set [1] (setting [4]) came out at 50%.
In turn, `Cc1sc(-c2ccccc2)nc1CCOc1ccc(C[C@H](NCc2ccc(F)cc2)C(=O)O)cc1` [Compound 22, (S)-3-[4-[2-(5-Methyl-2-phenyl-1,3-thiazol-4-yl)ethoxy]phenyl]-2-(4-fluorobenzylamino)propionic Acid] showed a melting point of 192 to 195 °C. Moreover, the inhibition in vivo at 1 mg/kg/day in data set [1] (setting [2]) was 36%. Further, the inhibition in vivo at 1 mg/kg/day in data set [1] (setting [3]) was determined as 53%. Moreover, in data set [1] (setting [4]), the inhibition in vivo at 1 mg/kg/day stood at 33%.
`Cc1oc(-c2ccccc2)nc1CCOc1ccc(C[C@H](NCc2ccc(Cl)cc2)C(=O)O)cc1` [Compound 31, (S)-3-[4-[2-(5-Methyl-2-phenyl-1,3-oxazol-4-yl)ethoxy]phenyl]-2-(4-chlorobenzylamino)propionic Acid]: the melting point was 197 to 199 °C.
Consider `Cc1oc(-c2ccc(C(F)(F)F)cc2)nc1CCOc1ccc(C[C@H](NCc2ccc(F)cc2)C(=O)O)cc1` [Compound 21, (S)-3-[4-[2-[5-Methyl-2-(4-trifluoromethylphenyl)-1,3-oxazol-4-yl]ethoxy]phenyl]-2-(4-fluorobenzylamino)propionic Acid], for which the melting point was in the range of 202 to 204 °C.
Turning to `Cc1sc(N2CCOCC2)nc1CCOc1ccc(C[C@H](NCc2ccc(F)cc2)C(=O)O)cc1` [Compound 23, (S)-3-[4-[2-[5-Methyl-2-(morpholin-4-yl)-1,3-thiazol-4-yl]ethoxy]phenyl]-2-(4-fluorobenzylamino)propionic Acid], the melting point was 192 to 194 °C.
In turn, `Cc1oc(-c2ccccc2)nc1CCOc1ccc(C[C@H](NCc2ccccc2F)C(=O)O)cc1` [Compound 24, (S)-3-[4-[2-(5-Methyl-2-phenyl-1,3-oxazol-4-yl)ethoxy]phenyl]-2-(2-fluorobenzylamino)propionic Acid] gave a melting point of 191 to 193 °C.
